Laboratory results published in patent US12509444B2, “Compounds and methods for CD73 modulation and indications therefor” (Plexxikon Inc., priority 2019, dated 2025).
pIC50: −log10 of the molar value.

Columns and labels:
human CD73 = target: T1, human CD73 (Homo sapiens, UniProt P21589); assay: Inhibitor activity against CD73 in cell based assay (CD73 expressing CHO-K1 cells); conditions: CHO-K1 cells expressing human CD73, 150 μM AMP, 4 hours of incubation; read-out: CHO-K1 CELL VARIANT: CD73 IC50
T1 construct: expressed in transfected cells
T1 sequence (P21589 27-549): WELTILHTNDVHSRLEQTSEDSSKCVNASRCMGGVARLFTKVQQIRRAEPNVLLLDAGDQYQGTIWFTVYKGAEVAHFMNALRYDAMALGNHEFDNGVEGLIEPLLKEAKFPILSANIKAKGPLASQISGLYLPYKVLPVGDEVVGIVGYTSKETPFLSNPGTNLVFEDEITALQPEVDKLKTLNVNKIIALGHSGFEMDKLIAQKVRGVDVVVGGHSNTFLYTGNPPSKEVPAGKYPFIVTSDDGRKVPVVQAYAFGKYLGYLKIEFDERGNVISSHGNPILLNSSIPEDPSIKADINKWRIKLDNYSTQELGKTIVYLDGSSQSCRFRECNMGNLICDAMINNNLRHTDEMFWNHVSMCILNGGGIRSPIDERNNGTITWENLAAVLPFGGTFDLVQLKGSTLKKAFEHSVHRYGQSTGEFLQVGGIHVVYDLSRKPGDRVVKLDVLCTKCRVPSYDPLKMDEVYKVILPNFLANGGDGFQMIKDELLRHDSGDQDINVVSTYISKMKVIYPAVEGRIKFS
Method in brief: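 Stably transfected CHO-K1 cells expressing human CD73 (1×10^4/well) incubated 4 h with compound (8-point 1:3 titration, top 10 μM final, 0.2% DMSO) and 150 μM AMP. Residual AMP in supernatant measured by CellTiter-Glo luminescence with 1 μM ATP after 30 min at room temperature; IC50 by nonlinear regression of percent inhibition vs high/low controls.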

[1] = target: T2, Human CD73 (amino acid residues 27-549) (Homo sapiens, UniProt P21589); assay: CD73 enzymatic assay (luciferase-based indirect assay, CellTiter-Glo); type: biochemical; conditions: 0.4 nM CD73, 150 μM AMP, 1 hour at room temperature
T2 construct: Human CD73 (amino acid residues 27-549); His tag (N); made in house; host or cells: E. coli
T2 sequence (P21589 27-549): T1 sequence (P21589 27-549)
Method in brief: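 His-tagged human CD73 (27-549) from E. coli, 0.4 nM, with 150 μM AMP in 50 mM HEPES pH 7.4, 0.01% Tween 20; 1 h at room temperature. AMP remaining read by CellTiter-Glo 2.0 luminescence with 1 μM final ATP after 30 min. IC50 from nonlinear regression of % inhibition.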

pIC50 (human CD73) | pIC50 [1] | SMILES
5.00 to 9.00 | 5.00 to 9.00 | O=C(N[C@H]1CC[C@H](NS(=O)(=O)c2ccsc2)CC1)O[C@@H]1CCN(c2cn[nH]c(=O)c2Cl)C1 [P-0299, (R)-1-(5-chloro-6-oxo-1,6-dihydropyridazin-4-yl)pyrrolidin-3-yl ((1r,4R)-4-(thiophene-3-sulfonamido)cyclohexyl) carbamate]
5.00 to 9.00 | 5.00 to 9.00 | O=C(N[C@H]1CC[C@H](NS(=O)(=O)c2cccs2)CC1)O[C@@H]1CCN(c2cn[nH]c(=O)c2Cl)C1 [P-0300, (R)-1-(5-chloro-6-oxo-1,6-dihydropyridazin-4-yl)pyrrolidin-3-yl ((1r,4R)-4-(thiophene-2-sulfonamido)cyclohexyl) carbamate]
5.00 to 9.00 | 5.00 to 9.00 | O=C(N[C@H]1CC[C@H](NS(=O)(=O)c2ccc(Cl)s2)CC1)O[C@@H]1CCN(c2cn[nH]c(=O)c2Cl)C1 [P-0301, (R)-1-(5-chloro-6-oxo-1,6-dihydropyridazin-4-yl)pyrrolidin-3-yl ((1r,4R)-4-((5-chlorothiophene)-2-sulfonamido)cyclohexyl) carbamate]
5.00 to 9.00 | 5.00 to 9.00 | Cc1noc(C)c1S(=O)(=O)N[C@H]1CC[C@H](NC(=O)O[C@@H]2CCN(c3cn[nH]c(=O)c3Cl)C2)CC1 [P-0302, (R)-1-(5-chloro-6-oxo-1,6-dihydropyridazin-4-yl)pyrrolidin-3-yl ((1r,4R)-4-((3,5-dimethylisoxazole)-4-sulfonamido)cyclohexyl) carbamate]
5.00 to 9.00 | 5.00 to 9.00 | COCCS(=O)(=O)N[C@H]1CC[C@H](NC(=O)O[C@@H]2CCN(c3cn[nH]c(=O)c3Cl)C2)CC1 [P-0303, (R)-1-(5-chloro-6-oxo-1,6-dihydropyridazin-4-yl)pyrrolidin-3-yl ((1r,4R)-4-((2-methoxyethyl)sulfonamido)cyclohexyl)carbamate]
5.00 to 9.00 | 5.00 to 9.00 | O=C(N[C@H]1CC[C@H](NS(=O)(=O)CCC(F)(F)F)CC1)O[C@@H]1CCN(c2cn[nH]c(=O)c2Cl)C1 [P-0304, (R)-1-(5-chloro-6-oxo-1,6-dihydropyridazin-4-yl)pyrrolidin-3-yl ((1r,4R)-4-((3,3,3-trifluoropropyl)sulfonamido)cyclohexyl)carbamate]
5.00 to 9.00 | 5.00 to 9.00 | O=C(N[C@H]1CC[C@H](NS(=O)(=O)CC(F)(F)F)CC1)O[C@@H]1CCN(c2cn[nH]c(=O)c2Cl)C1 [P-0305, (R)-1-(5-chloro-6-oxo-1,6-dihydropyridazin-4-yl)pyrrolidin-3-yl ((1r,4R)-4-((2,2,2-trifluoroethyl)sulfonamido)cyclohexyl)carbamate]
5.00 to 9.00 | 5.00 to 9.00 | O=C(N[C@H]1CC[C@H](NS(=O)(=O)Cc2ccccc2)CC1)O[C@@H]1CCN(c2cn[nH]c(=O)c2Cl)C1 [P-0306, (R)-1-(5-chloro-6-oxo-1,6-dihydropyridazin-4-yl)pyrrolidin-3-yl ((1r,4R)-4-((phenylmethyl)sulfonamido)cyclohexyl)carbamate]
5.00 to 9.00 | 5.00 to 9.00 | N#CCS(=O)(=O)N[C@H]1CC[C@H](NC(=O)O[C@@H]2CCN(c3cn[nH]c(=O)c3Cl)C2)CC1 [P-0307, (R)-1-(5-chloro-6-oxo-1,6-dihydropyridazin-4-yl)pyrrolidin-3-yl ((1r,4R)-4-((cyanomethyl)sulfonamido)cyclohexyl)carbamate]
5.00 to 9.00 | 5.00 to 9.00 | C=CS(=O)(=O)N[C@H]1CC[C@H](NC(=O)O[C@@H]2CCN(c3cn[nH]c(=O)c3Cl)C2)CC1 [P-0308, (R)-1-(5-chloro-6-oxo-1,6-dihydropyridazin-4-yl)pyrrolidin-3-yl ((1r,4R)-4-(vinylsulfonamido)cyclohexyl) carbamate]
5.00 to 9.00 | 5.00 to 9.00 | O=C(N[C@H]1CC[C@H](NS(=O)(=O)c2c[nH]cn2)CC1)O[C@@H]1CCN(c2cn[nH]c(=O)c2Cl)C1 [P-0309, (R)-1-(5-chloro-6-oxo-1,6-dihydropyridazin-4-yl)pyrrolidin-3-yl ((1r,4R)-4-(1H-imidazole-4-sulfonamido)cyclohexyl) carbamate]
5.00 to 9.00 | 5.00 to 9.00 | CN1CCN(S(=O)(=O)N[C@H]2CC[C@H](NC(=O)O[C@@H]3CCN(c4cn[nH]c(=O)c4Cl)C3)CC2)CC1 [P-0310, (R)-1-(5-chloro-6-oxo-1,6-dihydropyridazin-4-yl)pyrrolidin-3-yl ((1r,4R)-4-((4-methylpiperazine)-1-sulfonamido)cyclohexyl) carbamate]
5.00 to 9.00 | 5.00 to 9.00 | CC(C)NS(=O)(=O)N[C@H]1CC[C@H](NC(=O)O[C@@H]2CCN(c3cn[nH]c(=O)c3Cl)C2)CC1 [P-0311, (R)-1-(5-chloro-6-oxo-1,6-dihydropyridazin-4-yl)pyrrolidin-3-yl ((1r,4R)-4-((N-isopropylsulfamoyl)amino)cyclohexyl)carbamate]
5.00 to 9.00 | 5.00 to 9.00 | CNS(=O)(=O)N[C@H]1CC[C@H](NC(=O)O[C@@H]2CCN(c3cn[nH]c(=O)c3Cl)C2)CC1 [P-0312, (R)-1-(5-chloro-6-oxo-1,6-dihydropyridazin-4-yl)pyrrolidin-3-yl ((1r,4R)-4-((N-methylsulfamoyl)amino)cyclohexyl)carbamate]
5.00 to 9.00 | 5.00 to 9.00 | CC1(S(=O)(=O)N[C@H]2CC[C@H](NC(=O)O[C@@H]3CCN(c4cn[nH]c(=O)c4Cl)C3)CC2)CC1 [P-0313, (R)-1-(5-chloro-6-oxo-1,6-dihydropyridazin-4-yl)pyrrolidin-3-yl ((1r,4R)-4-((1-methylcyclopropane)-1-sulfonamido)cyclohexyl) carbamate]
5.00 to 9.00 | 5.00 to 9.00 | O=C(N[C@H]1CC[C@H](NC(=O)c2ccccc2F)CC1)O[C@@H]1CCN(c2cn[nH]c(=O)c2Cl)C1 [P-0314, (R)-1-(5-chloro-6-oxo-1,6-dihydropyridazin-4-yl)pyrrolidin-3-yl ((1r,4R)-4-(2-fluorobenzamido)cyclohexyl) carbamate]
5.00 to 9.00 | 5.00 to 9.00 | O=C(N[C@H]1CC[C@H](NC(=O)c2cccc(F)c2)CC1)O[C@@H]1CCN(c2cn[nH]c(=O)c2Cl)C1 [P-0315, (R)-1-(5-chloro-6-oxo-1,6-dihydropyridazin-4-yl)pyrrolidin-3-yl ((1r,4R)-4-(3-fluorobenzamido)cyclohexyl) carbamate]
5.00 to 9.00 | 5.00 to 9.00 | Cc1ccccc1C(=O)N[C@H]1CC[C@H](NC(=O)O[C@@H]2CCN(c3cn[nH]c(=O)c3Cl)C2)CC1 [P-0316, (R)-1-(5-chloro-6-oxo-1,6-dihydropyridazin-4-yl)pyrrolidin-3-yl ((1r,4R)-4-(2-methylbenzamido)cyclohexyl) carbamate]
5.00 to 9.00 | 5.00 to 9.00 | Cc1cccc(C(=O)N[C@H]2CC[C@H](NC(=O)O[C@@H]3CCN(c4cn[nH]c(=O)c4Cl)C3)CC2)c1 [P-0317, (R)-1-(5-chloro-6-oxo-1,6-dihydropyridazin-4-yl)pyrrolidin-3-yl ((1r,4R)-4-(3-methylbenzamido)cyclohexyl) carbamate]
5.00 to 9.00 | 5.00 to 9.00 | O=C(N[C@H]1CC[C@H](NC(=O)c2ccc(C(F)(F)F)nc2)CC1)O[C@@H]1CCN(c2cn[nH]c(=O)c2Cl)C1 [P-0318, (R)-1-(5-chloro-6-oxo-1,6-dihydropyridazin-4-yl)pyrrolidin-3-yl ((1r,4R)-4-(6-(trifluoromethyl)nicotinamido)cyclohexyl)carbamate]
